Measured values: ChEMBL document CHEMBL5385961, “In vitro and in vivo evaluation of novel chromeno[2,3-d]pyrimidinones as therapeutic agents for triple negative breast cancer” (RSC Med Chem, 2024)
Activity calls are given as the source filed them. The calls are words filed in the database; no cut-off is given here.

Legend:
Hs-578T [1] = assay: Cytotoxicity against human Hs-578T cells assessed as inhibition of cell growth incubated for 72 hrs by SRB assay; format: functional, cell-based
[2] = Cytotoxicity against human MCF-10A cells assessed as inhibition of cell growth incubated for 72 hrs by SRB assay; format: toxicity, cell-based
Homo sapiens = organism: Homo sapiens; assay: Selectivity index, ratio of IC50 for human MCF-10A cells to IC50 for human Hs-578T cells
Hs-578T [3] = assay: Cytotoxicity against human Hs-578T cells assessed as reduction in cell proliferation at IC50 measured after 24 hrs by BrdU incorporation assay relative to control; format: functional; parameters: scale not given: the % may be the effect or the level left
Hs-578T [4] = assay: Cytotoxicity against human Hs-578T cells assessed as reduction in cell proliferation at IC50 measured after 48 hrs by BrdU incorporation assay relative to control; format: functional; parameters: scale not given: the % may be the effect or the level left
Hs-578T [5] = assay: Induction of apoptosis in human Hs-578T cells assessed as increase in cleaved PARP level at IC50 measured after 48 hrs by Western blot analysis; format: functional, cell-based
Hs-578T [6] = assay: Induction of apoptosis in human Hs-578T cells assessed as increase in caspase-8 protein expression at IC50 measured after 48 hrs by Western blot analysis; format: functional, cell-based
Hs-578T [7] = assay: Induction of apoptosis in human Hs-578T cells assessed as increase in caspase-9 protein expression at IC50 measured after 24 to 48 hrs by Western blot analysis; format: functional, cell-based; conditions: time 24-48 hrs
Hs-578T [8] = assay: Induction of apoptosis in human Hs-578T cells assessed as reduction in viable cells at IC50 measured after 24 to 48 hrs by Annexin V-FITC/PI staining based flow cytometry analysis; format: functional, cell-based; conditions: time 24-48 hrs
Hs-578T [9] = assay: Induction of cell cycle arrest in human Hs-578T cells assessed as accumulation of cells at S phase at IC50 measured after 24 hrs by RNase/PI staining based flow cytometry analysis; format: functional
Hs-578T [10] = assay: Induction of cell cycle arrest in human Hs-578T cells assessed as accumulation of cells at S phase at IC50 measured after 48 hrs by RNase/PI staining based flow cytometry analysis; format: functional
Hs-578T [11] = assay: Induction of cell cycle arrest in human Hs-578T cells assessed as reduction in G0/G1 cell population at IC50 measured after 24 hrs by RNase/PI staining based flow cytometry analysis; format: functional
[12] = Toxicity in wild type Caenorhabditis elegans N2 assessed as effect on food consumption at 0.0001 to 50 uM measured daily for 7 days by food clearance assay; conditions: 168 h, dose 0.0001-50 µM, time 7 day
[13] = Toxicity in wild type Caenorhabditis elegans N2 assessed as drug tolerance at 0.0001 to 50 uM; conditions: dose 0.0001-50 µM
Hs-578T [14] = assay: Antitumor activity against human Hs-578T cells implanted in chick eggs assessed as tumor growth regression at 2 times IC50 administered starting from day 13 and measured 17 days post embryo development by stereomicroscopic analysis; format: functional, cell-based; conditions: time 5.0 day
[15] = Toxicity in wild type C57BL/6J mouse assessed as reduction in body weight at 10 to 50 mg/kg, ip administered daily for 7 days; format: organism-based; conditions: in vivo, 168 h, dose 10-50 mg/kg, time 7 day
[16] = Toxicity in wild type C57BL/6J mouse assessed as effect on body temperature at 10 to 50 mg/kg, ip administered daily for 7 days; format: organism-based; conditions: in vivo, 168 h, dose 10-50 mg/kg, time 7 day
[17] = Toxicity in wild type C57BL/6J mouse assessed as mean water intake per day at 10 to 50 mg/kg, ip administered daily for 7 days; format: organism-based; conditions: in vivo, 168 h, dose 10-50 mg/kg, time 7 day
[18] = Toxicity in wild type C57BL/6J mouse assessed as mean food intake at 10 mg/kg, ip administered daily for 7 days; format: organism-based; conditions: in vivo, 168 h, time 7 day
[19] = Toxicity in wild type C57BL/6J mouse assessed as mean food intake at 50 mg/kg, ip administered daily for 7 days; format: organism-based; conditions: in vivo, 168 h, time 7 day
[20] = Toxicity in wild type C57BL/6J mouse assessed as effect on horizontal activity at 10 to 50 mg/kg, ip administered daily for 7 days and measured daily; format: organism-based; conditions: in vivo, 168 h, dose 10-50 mg/kg, time 7 day
[21] = Toxicity in wild type C57BL/6J mouse assessed as effect on bolus fecalis count at 10 to 50 mg/kg, ip administered daily for 7 days and measured daily; format: organism-based; conditions: in vivo, 168 h, dose 10-50 mg/kg, time 7 day
[22] = Toxicity in wild type C57BL/6J mouse assessed as effect on spontaneous activity at 10 to 50 mg/kg, ip administered daily for 7 days and measured daily; format: organism-based; conditions: in vivo, 168 h, dose 10-50 mg/kg, time 7 day
[23] = Toxicity in wild type C57BL/6J mouse assessed as transfer to reaction at 10 to 50 mg/kg, ip administered daily for 7 days and measured daily; format: organism-based; conditions: in vivo, 168 h, dose 10-50 mg/kg, time 7 day
[24] = Toxicity in wild type C57BL/6J mouse assessed as effect on grooming at 10 to 50 mg/kg, ip administered daily for 7 days and measured daily; format: organism-based; conditions: in vivo, 168 h, dose 10-50 mg/kg, time 7 day
[25] = Toxicity in wild type C57BL/6J mouse assessed as effect on respiratory rate at 10 to 50 mg/kg, ip administered daily for 7 days and measured daily; format: organism-based; conditions: in vivo, 168 h, dose 10-50 mg/kg, time 7 day
[26] = Toxicity in wild type C57BL/6J mouse assessed as tremor at 10 to 50 mg/kg, ip administered daily for 7 days and measured daily; format: organism-based; conditions: in vivo, 168 h, dose 10-50 mg/kg, time 7 day
[27] = Toxicity in wild type C57BL/6J mouse assessed as effect on body curvature at 10 to 50 mg/kg, ip administered daily for 7 days and measured daily; format: organism-based; conditions: in vivo, 168 h, dose 10-50 mg/kg, time 7 day
[28] = Toxicity in wild type C57BL/6J mouse assessed as effect on eyelid opening at 10 to 50 mg/kg, ip administered daily for 7 days and measured daily; format: organism-based; conditions: in vivo, 168 h, dose 10-50 mg/kg, time 7 day
[29] = Toxicity in wild type C57BL/6J mouse assessed as effect on eyelid reflexes at 10 to 50 mg/kg, ip administered daily for 7 days and measured daily; format: organism-based; conditions: in vivo, 168 h, dose 10-50 mg/kg, time 7 day
[30] = Toxicity in wild type C57BL/6J mouse assessed as effect on hydration at 10 to 50 mg/kg, ip administered daily for 7 days and measured daily; format: organism-based; conditions: in vivo, 168 h, dose 10-50 mg/kg, time 7 day
[31] = Toxicity in wild type C57BL/6J mouse assessed as effect on fur quality at 10 to 50 mg/kg, ip administered daily for 7 days and measured daily; format: organism-based; conditions: in vivo, 168 h, dose 10-50 mg/kg, time 7 day
[32] = Toxicity in wild type C57BL/6J mouse assessed as straub tail reaction at 10 to 50 mg/kg, ip administered daily for 7 days and measured daily; format: organism-based; conditions: in vivo, 168 h, dose 10-50 mg/kg, time 7 day
[33] = Toxicity in wild type C57BL/6J mouse assessed as clasping at 10 to 50 mg/kg, ip administered daily for 7 days and measured daily; format: organism-based; conditions: in vivo, 168 h, dose 10-50 mg/kg, time 7 day
Hs-578T [34] = assay: Cytotoxicity against human Hs-578T cells assessed as cell viability at 10 uM incubated for 72 hrs by SRB assay relative to control; format: functional; conditions: read-out: Activity
Hs-578T [35] = assay: Cytotoxicity against human Hs-578T cells assessed as cell viability at 30 uM incubated for 72 hrs by SRB assay relative to control; format: functional; conditions: read-out: Activity
MDA-MB-231 = assay: Cytotoxicity against human MDA-MB-231 cells assessed as cell viability at 10 uM incubated for 72 hrs by SRB assay relative to control; format: functional; conditions: read-out: Activity
MCF7 [36] = assay: Cytotoxicity against human MCF7 cells assessed as cell viability at 10 uM incubated for 72 hrs by SRB assay relative to control; format: functional; conditions: read-out: Activity
MCF7 [37] = assay: Cytotoxicity against human MCF7 cells assessed as cell viability at 30 uM incubated for 72 hrs by SRB assay relative to control; format: functional; conditions: read-out: Activity
Hs-578T [38] = assay: Cytotoxicity against human Hs-578T cells assessed as reduction in cell viability at 10 uM incubated for 72 hrs by SRB assay relative to control; format: functional

With Brc1ccc2c(c1)-c1cc(-c3ccccc3)nc3c1C(N=CN3c1ccccc1)O2 (stereo not given) the IC50 (Hs-578T [1]) was 8.63 µM, the IC50 at 72 h [2] was 36.8 µM and the Ratio IC50 (Homo sapiens) was 3.26. For the same compound, the Activity (Hs-578T [3]) was ~30%, the Activity (Hs-578T [4]) was 35% and the Activity (Hs-578T [5]) was “Active”. The Activity (Hs-578T [6]) was “inactive”, the Activity (Hs-578T [7]) was “Active” and the Activity (Hs-578T [8]) was “Active”. For the same compound, the Activity (Hs-578T [9]) was “inactive”, the Activity (Hs-578T [10]) was “Active” and the Activity (Hs-578T [11]) was “Active”. The Activity [12] was “Non-Toxic”, the Activity [13] was “Non-Toxic” and the Activity (Hs-578T [14]) was “Active”. For the same compound, the Activity [15] was “Non-Toxic”, the Activity [16] was “Non-Toxic” and the Activity [17] was ~ 4 ml. For the same compound, the Activity [18] was ~ 3 g/day, the Activity [19] was 2.94 g/day and the Activity [20] was “Non-Toxic”. The Activity [21] was “Non-Toxic”, the Activity [22] was “Non-Toxic” and the Activity [23] was “Non-Toxic”. The Activity [24] was “Non-Toxic”, the Activity [25] was “Non-Toxic” and the Activity [26] was “Non-Toxic”. The Activity [27] was “Non-Toxic”, the Activity [28] was “Non-Toxic” and the Activity [29] was “Non-Toxic”. For the same compound, the Activity [30] was “Non-Toxic”, the Activity [31] was “Non-Toxic” and the Activity [32] was “Non-Toxic”. For the same compound, the Activity [33] was “Non-Toxic”, the viability at 10 µM (Hs-578T [34]) was 50.4% and the viability at 30 µM (Hs-578T [35]) was 32.6%. For the same compound, the viability at 10 µM (MDA-MB-231) was 49.9%, the viability at 10 µM (MCF7 [36]) was 58% and the viability at 30 µM (MCF7 [37]) was 25.9%. The Activity (Hs-578T [38]) was ~50%.
